Key:
[1] = test system: patient-derived pancreatic tumor fragments (PDX003); assay: Human pancreatic PDX003 model; settings: for TGI (%): Day 21; for Tumor volume Day 0: day of grouping; for Survival: surviving/total mice
Protocol: The antibodies were tested for their effect in two human pancreatic PDX (PDX003 and PDX004) models.
In PDX003 model, B-NDG mice were engrafted in the right flank with patient-derived pancreatic tumor fragments (2 mm×2 mm×2 mm). When the tumors in the mice reached a volume of about 300-400 mm^3, the mice were randomly placed into different groups based on the volume of the tumor.

NCI-H292 cells [2] = assay: NCI-H292 xenograft model in B-NDG mice; settings: for Tumor volume Day 14: 14 days after grouping; for Tumor volume Day 14 / Tumor volume Day 0 / Tumor volume Day 24: 1×10^7 NCI-H292 cells, about 300 mm^3 at grouping; for TGI (%): Day 24; for TGI (%) / Survival: 1×10^7 NCI-H292 cells experiment; for Tumor volume Day 0: day of grouping; for Tumor volume Day 24: end of experiment; for Survival: surviving/total mice
Protocol: The antibodies were tested for their effect on tumor growth in vivo in a model of lung carcinoma. About 1×10^7 NCI-H292 cells were injected subcutaneously in B-NDG mice. When the tumor in mice reached a volume of about 300 mm^3, the mice were randomly placed into different groups based on the volume of the tumor. The mice were then injected with PBS or antibodies by intravenous (i.v.) administration. The frequency of administration was once a week (2 administrations in total).

[3] = test system: patient-derived lung tumor fragments (PDX001); assay: Human lung PDX001 model; format: in vivo, B-NDG mice; settings: for TGI (%): Day 23; for Tumor volume Day 0: day of grouping; for Survival: surviving/total mice
HCC827 cells = assay: Internalization of antibodies targeting EGFR and/or MET in HCC827 cells; format: cell-based, human; settings: HCC827, 1 hour
Protocol: (§1) Anti-EGFR antibodies, anti-MET antibodies, or anti-EGFR/MET bispecific antibodies, together with the pHAb-Goat anti-human IgG secondary antibody were added to NCI-H1975 cells (ATCC, Reference No.: CRL-5908), HCC827 cells (ATCC, Reference No.: CRL-2868) and NCI-H292 (ATCC, Reference No.: CRL-1848) cells, respectively, and incubated for 1 hour. The cells were centrifuged and washed with FACS buffer. MFI was measured using a flow cytometer. Endocytosis rates of antibodies were calculated. For isotype control (ISO), an antibody targeting an irrelevant target protein was used.

SNU-5 cells = assay: SNU-5 xenograft model (gastric carcinoma) in B-NDG mice; format: in vivo; settings: for Tumor volume Day 10: 10 days after grouping; for TGI (%): Day 24; for Tumor volume Day 0: day of grouping; for Tumor volume Day 24: end of experiment; for Survival: surviving/total mice
[4] = test system: human lung cancer cell line NCI-H1975; assay: In vitro killing activity, IncuCyte; format: cell-based
Protocol: Different concentrations of purified antibodies (10 μg/mL, 3.33 μg/mL, 1.11 μg/mL, 0.37 μg/mL, 0.123 μg/mL, 0.041 μg/mL, 0.013 μg/mL, and 0.004 μg/mL) and corresponding ADCs were used to treat human lung cancer cell line NCI-H1975 (5×10^3) cultured in a cell culture plate, and the killing activity was detected after 72 hours of incubation in IncuCyte (Sartorius AG, IncuCyte® S3).

[5] = test system: patient-derived lung tumor fragments (PDX002); assay: Human lung PDX002 model; format: in vivo, B-NDG mice; settings: once a week x2; for Tumor volume Day 0: day of grouping; for Survival: surviving/total mice
Protocol: The control group mice were injected with PBS (G1).

NCI-H292 cells [6] = assay: Internalization of antibodies targeting EGFR and/or MET in NCI-H292 cells; format: cell-based, human; settings: NCI-H292, 1 hour
Protocol: as §1

NCI-H1975 cells = assay: NCI-H1975 xenograft model in B-NDG mice; format: in vivo; settings: Table 21 study
Protocol: The lengths of the long axis and the short axis of the tumor were measured and the volume of the tumor was calculated as 0.5×(long axis)×(short axis)^2. The tumor growth inhibition (TGI) was calculated using the following formula: TGI (%)=[1−(Ti−T0)/(Vi−V0)]×100. Ti is the average tumor volume in the treatment group on day i. T0 is the average tumor volume in the treatment group on day zero. Vi is the average tumor volume in the control group on day i. V0 is the average tumor volume in the control group on day zero. T-test was performed for statistical analysis. […] P<0.05 is a threshold to indicate significant difference.

[7] = test system: patient-derived pancreatic tumor fragments (PDX004); assay: Human pancreatic PDX004 model; format: in vivo, B-NDG mice; settings: Day 35
Source text: The tested antibody and the frequency of administration was similar to Table 28.

## Amivantamab analog: analog of Amivantamab, fully human bispecific antibody targeting EGFR and MET; SEQ ID NOs: 77-80
[1]; 1 mg/kg i.v. QW x2
  Tumor volume Day 11: 811 ± 65 mm^3
  Tumor volume Day 21: 1410 ± 130 mm^3
  TGI (%): −2.0%
  Tumor volume Day 0: 340 ± 18 mm^3
  Survival: 6/6
[1]; 3 mg/kg i.v. QW x2
  Tumor volume Day 11: 705 ± 62 mm^3
  Tumor volume Day 21: 1216 ± 96 mm^3
  TGI (%): 16.5%
  Tumor volume Day 0: 340 ± 18 mm^3
  Survival: 6/6
[1]; 10 mg/kg i.v. QW x2
  Tumor volume Day 11: 666 ± 60 mm^3
  Tumor volume Day 21: 1146 ± 123 mm^3
  TGI (%): 23.2%
  Tumor volume Day 0: 340 ± 16 mm^3
  Survival: 6/6
NCI-H292 cells [2]; 1 mg/kg i.v. QW x2
  Tumor volume Day 14: 1338 ± 243 mm^3
  TGI (%): 0.4%
  Tumor volume Day 0: 311 ± 14 mm^3
  Tumor volume Day 24: 2485 ± 536 mm^3
  Survival: 4/5
NCI-H292 cells [2]; 3 mg/kg i.v. QW x2
  Tumor volume Day 14: 1380 ± 320 mm^3
  TGI (%): 26.2%
  Tumor volume Day 0: 314 ± 11 mm^3
  Tumor volume Day 24: 1925 ± 389 mm^3
  Survival: 4/5
NCI-H292 cells [2]; 10 mg/kg i.v. QW x2
  Tumor volume Day 14: 915 ± 150 mm^3
  TGI (%): 44.5%
  Tumor volume Day 0: 327 ± 11 mm^3
  Tumor volume Day 24: 1538 ± 267 mm^3
  Survival: 4/5
[3]; 1 mg/kg i.v. QW x2
  Tumor volume Day 12: 1144 ± 86 mm^3
  Tumor volume Day 23: 3077 ± 235 mm^3
  TGI (%): −24.7%
  Tumor volume Day 0: 223 ± 18 mm^3
  Survival: 4/6
[3]; 3 mg/kg i.v. QW x2
  Tumor volume Day 12: 1448 ± 195 mm^3
  Tumor volume Day 23: 2465 ± 145 mm^3
  TGI (%): 2.0%
  Tumor volume Day 0: 223 ± 18 mm^3
  Survival: 3/6
[3]; 10 mg/kg i.v. QW x2
  Tumor volume Day 12: 1132 ± 77 mm^3
  Tumor volume Day 23: 2666 ± 212 mm^3
  TGI (%): −6.8%
  Tumor volume Day 0: 223 ± 22 mm^3
  Survival: 6/6
HCC827 cells
  MFI: 30401
  Positive Population: 88.90%
SNU-5 cells; 3 mg/kg i.v. QW x2
  Tumor volume Day 10: 294 ± 10 mm^3
  TGI (%): 8.4%
  Tumor volume Day 0: 200 ± 5 mm^3
  Tumor volume Day 24: 1111 ± 64 mm^3
  Survival: 5/5
SNU-5 cells; 10 mg/kg i.v. QW x2
  Tumor volume Day 10: 72 ± 9 mm^3
  TGI (%): 106.4%
  Tumor volume Day 0: 200 ± 9 mm^3
  Tumor volume Day 24: 136 ± 35 mm^3
  Survival: 5/5
[4]; NCI-H1975, 72 hours
  IC50: Not detected
[4]; highest concentration of 10 μg/m
  ability to kill NCI-H1975: neither E-6C4-M-2F11 nor Amivantamab analog has the ability to kill
[5]; 1 mg/kg
  Tumor volume Day 10: 805 ± 99 mm^3
  Tumor volume Day 21: 2279 ± 253 mm^3
  Tumor volume Day 0: 267 ± 12 mm^3
  Survival: 0/6
[5]; 3 mg/kg
  Tumor volume Day 10: 686 ± 55 mm^3
  Tumor volume Day 21: 1791 ± 214 mm^3
  Tumor volume Day 35: 3509 ± 239 mm^3
  Tumor volume Day 0: 267 ± 13 mm^3
  Survival: 3/6
[5]; 3 mg/kg, Day 35
  TGI (%): −7.1%
NCI-H292 cells [6]
  MFI: 13815
  Positive Population: 67.00%
NCI-H1975 cells; 10 mg/kg i.v. QW x2
  Survival: 5/5
  Tumor volume Day 11: 143 ± 20 mm^3
  Tumor volume Day 21: 294 ± 40 mm^3
NCI-H1975 cells; 10 mg/kg i.v. QW x2, Day 21
  TGI (%): 98.4%
NCI-H1975 cells; 10 mg/kg i.v. QW x2, day of grouping
  Tumor volume Day 0: 260 ± 19 mm^3
[7]; 1 mg/kg
  TGI (%): −13.3%
[7]; 3 mg/kg
  TGI (%): −0.6%
[7]; 10 mg/kg
  TGI (%): 4.1%
